{"source": "paper PMC8800111", "about": "(The Journal of Biological Chemistry, 2021)", "assay_type_in_all_cases": "cell-based", "key": {"[1]": {"biological_target": "proteins of U3A human fibrosarcoma cells (4462 proteins detected) (Homo sapiens, UniProt O00244)", "sequence (O00244 whole entry)": "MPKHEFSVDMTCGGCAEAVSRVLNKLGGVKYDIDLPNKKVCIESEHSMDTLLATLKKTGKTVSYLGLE", "conditions": "protein ATOX1, U3A cells"}, "[2]": {"biological_target": "proteins of U3A human fibrosarcoma cells (4462 proteins detected) (Homo sapiens, UniProt O75151)", "conditions": "protein PHF2; soluble abundance after heat, U3A cells"}, "[3]": {"biological_target": "proteins of U3A human fibrosarcoma cells (4462 proteins detected) (Homo sapiens, UniProt O75367)", "conditions": "protein H2AFY; U3A, 10 μM, 2 h"}, "[4]": {"biological_target": "proteins of U3A human fibrosarcoma cells (4462 proteins detected) (Homo sapiens, UniProt O75400)", "sequence (O75400 whole entry)": "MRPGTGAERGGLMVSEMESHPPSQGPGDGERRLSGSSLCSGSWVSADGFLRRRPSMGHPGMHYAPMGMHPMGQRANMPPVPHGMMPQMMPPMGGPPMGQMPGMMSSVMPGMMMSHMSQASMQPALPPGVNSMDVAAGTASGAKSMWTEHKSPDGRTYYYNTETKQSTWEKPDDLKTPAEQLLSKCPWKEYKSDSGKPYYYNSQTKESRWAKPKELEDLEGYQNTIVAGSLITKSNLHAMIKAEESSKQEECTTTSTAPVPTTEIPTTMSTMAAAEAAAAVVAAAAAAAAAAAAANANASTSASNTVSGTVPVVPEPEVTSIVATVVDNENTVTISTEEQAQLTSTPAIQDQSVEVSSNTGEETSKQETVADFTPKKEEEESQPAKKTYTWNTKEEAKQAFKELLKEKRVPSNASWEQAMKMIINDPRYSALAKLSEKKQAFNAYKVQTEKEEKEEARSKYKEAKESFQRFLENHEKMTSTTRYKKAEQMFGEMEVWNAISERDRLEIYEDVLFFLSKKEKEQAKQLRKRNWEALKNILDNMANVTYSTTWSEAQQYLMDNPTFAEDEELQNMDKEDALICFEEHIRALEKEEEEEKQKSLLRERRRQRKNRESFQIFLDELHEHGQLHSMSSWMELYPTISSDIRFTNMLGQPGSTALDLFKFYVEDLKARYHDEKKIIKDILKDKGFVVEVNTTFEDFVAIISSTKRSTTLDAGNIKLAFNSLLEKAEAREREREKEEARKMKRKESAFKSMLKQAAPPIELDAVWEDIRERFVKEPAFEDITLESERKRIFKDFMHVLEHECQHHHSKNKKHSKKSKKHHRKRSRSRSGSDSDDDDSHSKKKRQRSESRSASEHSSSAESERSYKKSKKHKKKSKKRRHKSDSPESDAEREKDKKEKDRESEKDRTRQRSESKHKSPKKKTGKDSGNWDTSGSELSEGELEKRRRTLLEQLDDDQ", "conditions": "protein PRPF40A; U3A cells"}, "[5]": {"biological_target": "proteins of U3A human fibrosarcoma cells (4462 proteins detected) (Homo sapiens, UniProt P15586)", "conditions": "protein GNS, U3A cells"}, "[6]": {"biological_target": "proteins of U3A human fibrosarcoma cells (4462 proteins detected) (Homo sapiens, UniProt P31689)", "sequence (P31689 whole entry)": "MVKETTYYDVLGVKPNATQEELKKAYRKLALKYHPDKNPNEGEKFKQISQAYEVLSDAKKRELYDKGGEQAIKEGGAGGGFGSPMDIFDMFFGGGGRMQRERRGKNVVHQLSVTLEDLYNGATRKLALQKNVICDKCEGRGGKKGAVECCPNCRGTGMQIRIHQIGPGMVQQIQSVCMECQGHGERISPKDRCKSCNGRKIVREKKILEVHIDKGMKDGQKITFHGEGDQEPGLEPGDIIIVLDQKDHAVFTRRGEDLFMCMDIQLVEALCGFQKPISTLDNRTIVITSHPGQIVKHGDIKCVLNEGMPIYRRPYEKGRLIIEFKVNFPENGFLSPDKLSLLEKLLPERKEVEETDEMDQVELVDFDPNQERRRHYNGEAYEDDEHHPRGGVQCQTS", "conditions": "protein DNAJA1; U3A cells"}, "[7]": {"biological_target": "proteins of U3A human fibrosarcoma cells (4462 proteins detected) (Homo sapiens, UniProt P35606)", "sequence (P35606 whole entry)": "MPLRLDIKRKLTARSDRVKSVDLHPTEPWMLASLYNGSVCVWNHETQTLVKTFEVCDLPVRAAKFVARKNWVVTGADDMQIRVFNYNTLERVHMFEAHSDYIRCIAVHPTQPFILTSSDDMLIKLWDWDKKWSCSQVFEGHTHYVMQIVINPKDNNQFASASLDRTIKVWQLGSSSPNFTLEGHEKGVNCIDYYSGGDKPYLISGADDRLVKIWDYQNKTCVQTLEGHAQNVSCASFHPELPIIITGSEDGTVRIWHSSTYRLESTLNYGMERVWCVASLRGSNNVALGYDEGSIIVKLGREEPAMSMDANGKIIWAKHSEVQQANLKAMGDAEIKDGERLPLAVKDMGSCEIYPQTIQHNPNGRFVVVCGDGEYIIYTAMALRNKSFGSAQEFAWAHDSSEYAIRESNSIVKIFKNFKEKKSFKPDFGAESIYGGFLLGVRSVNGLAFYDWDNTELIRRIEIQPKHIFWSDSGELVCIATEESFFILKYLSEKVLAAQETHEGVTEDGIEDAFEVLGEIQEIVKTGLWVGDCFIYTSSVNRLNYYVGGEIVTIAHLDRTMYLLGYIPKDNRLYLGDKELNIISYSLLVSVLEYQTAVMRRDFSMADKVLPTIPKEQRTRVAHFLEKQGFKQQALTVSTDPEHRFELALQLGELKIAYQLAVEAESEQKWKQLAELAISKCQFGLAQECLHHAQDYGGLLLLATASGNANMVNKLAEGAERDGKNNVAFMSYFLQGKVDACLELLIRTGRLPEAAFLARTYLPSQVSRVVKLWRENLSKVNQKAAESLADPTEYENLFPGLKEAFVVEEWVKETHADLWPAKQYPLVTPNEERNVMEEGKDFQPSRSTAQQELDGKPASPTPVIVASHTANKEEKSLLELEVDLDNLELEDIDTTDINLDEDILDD", "conditions": "protein COPB2; soluble abundance after heat, U3A cells"}, "[8]": {"biological_target": "proteins of U3A human fibrosarcoma cells (4462 proteins detected) (Homo sapiens, UniProt P46939)", "conditions": "protein UTRN; soluble abundance after heat, U3A cells"}, "[9]": {"biological_target": "proteins of U3A human fibrosarcoma cells (4462 proteins detected) (Homo sapiens, UniProt P49207)", "conditions": "protein RPL34; U3A cells"}, "[10]": {"biological_target": "proteins of U3A human fibrosarcoma cells (4462 proteins detected) (Homo sapiens, UniProt P49459)", "sequence (P49459 whole entry)": "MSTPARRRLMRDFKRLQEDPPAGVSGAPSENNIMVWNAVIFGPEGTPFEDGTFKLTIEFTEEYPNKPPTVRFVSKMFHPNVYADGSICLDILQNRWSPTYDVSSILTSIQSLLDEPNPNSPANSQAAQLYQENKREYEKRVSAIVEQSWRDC", "conditions": "protein UBE2A, U3A cells"}, "[11]": {"biological_target": "proteins of U3A human fibrosarcoma cells (4462 proteins detected) (Homo sapiens, UniProt P52747)", "conditions": "protein ZNF143; U3A, 10 μM, 2 h"}, "[12]": {"biological_target": "proteins of U3A human fibrosarcoma cells (4462 proteins detected) (Homo sapiens, UniProt P55769)", "conditions": "protein NHP2L1; soluble abundance after heat, U3A cells"}, "[13]": {"biological_target": "proteins of U3A human fibrosarcoma cells (4462 proteins detected) (Homo sapiens, UniProt Q15397)", "conditions": "protein KIAA0020; U3A cells"}, "[14]": {"biological_target": "proteins of U3A human fibrosarcoma cells (4462 proteins detected) (Homo sapiens, UniProt Q6P3W2)", "sequence (Q6P3W2 whole entry)": "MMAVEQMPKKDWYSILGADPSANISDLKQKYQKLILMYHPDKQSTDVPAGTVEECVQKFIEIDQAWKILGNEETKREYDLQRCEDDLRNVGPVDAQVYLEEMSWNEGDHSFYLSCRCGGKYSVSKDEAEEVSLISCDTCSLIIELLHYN", "conditions": "protein DNAJC24; ZCSL3, U3A cells"}, "[15]": {"biological_target": "proteins of U3A human fibrosarcoma cells (4462 proteins detected) (Homo sapiens, UniProt Q6SJ93)", "conditions": "protein FAM111B; U3A cells"}, "[16]": {"biological_target": "proteins of U3A human fibrosarcoma cells (4462 proteins detected) (Homo sapiens, UniProt Q6UWP8)", "conditions": "protein SBSN, U3A cells"}, "[17]": {"biological_target": "proteins of U3A human fibrosarcoma cells (4462 proteins detected) (Homo sapiens, UniProt Q8IWW6)", "sequence (Q8IWW6 whole entry)": "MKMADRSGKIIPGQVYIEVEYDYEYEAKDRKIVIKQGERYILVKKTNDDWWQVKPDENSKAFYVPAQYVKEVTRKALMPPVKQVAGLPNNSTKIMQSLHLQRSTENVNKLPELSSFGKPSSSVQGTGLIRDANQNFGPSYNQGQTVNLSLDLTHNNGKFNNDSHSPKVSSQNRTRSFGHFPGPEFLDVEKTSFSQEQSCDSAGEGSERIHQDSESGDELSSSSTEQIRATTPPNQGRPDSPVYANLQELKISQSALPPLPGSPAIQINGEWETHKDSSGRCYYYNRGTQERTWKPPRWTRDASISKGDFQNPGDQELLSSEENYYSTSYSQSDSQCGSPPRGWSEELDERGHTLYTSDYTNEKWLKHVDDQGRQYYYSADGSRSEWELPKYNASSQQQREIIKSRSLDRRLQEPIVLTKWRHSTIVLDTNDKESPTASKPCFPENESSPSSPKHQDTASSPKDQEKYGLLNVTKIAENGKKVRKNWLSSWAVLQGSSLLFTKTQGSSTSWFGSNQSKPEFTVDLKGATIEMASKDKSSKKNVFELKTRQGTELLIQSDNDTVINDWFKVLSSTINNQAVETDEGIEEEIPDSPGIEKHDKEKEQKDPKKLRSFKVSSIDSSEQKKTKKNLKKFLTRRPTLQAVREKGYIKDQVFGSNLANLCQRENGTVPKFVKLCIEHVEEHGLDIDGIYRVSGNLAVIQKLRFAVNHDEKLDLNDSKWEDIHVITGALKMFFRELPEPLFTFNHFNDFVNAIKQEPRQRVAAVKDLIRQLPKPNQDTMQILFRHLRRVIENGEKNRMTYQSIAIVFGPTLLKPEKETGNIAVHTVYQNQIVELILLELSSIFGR", "conditions": "protein ARHGAP12; soluble abundance after heat, U3A cells"}, "[18]": {"biological_target": "proteins of U3A human fibrosarcoma cells (4462 proteins detected) (Homo sapiens, UniProt Q8IXK0)", "conditions": "protein PHC2; U3A cells"}, "[19]": {"biological_target": "proteins of U3A human fibrosarcoma cells (4462 proteins detected) (Homo sapiens, UniProt Q8IY18)", "conditions": "protein SMC5; U3A, 10 μM, 2 h"}, "[20]": {"biological_target": "proteins of U3A human fibrosarcoma cells (4462 proteins detected) (Homo sapiens, UniProt Q8N465)", "conditions": "protein D2HGDH; soluble abundance after heat, U3A cells"}, "[21]": {"biological_target": "proteins of U3A human fibrosarcoma cells (4462 proteins detected) (Homo sapiens, UniProt Q8NI22)", "sequence (Q8NI22 27-146)": "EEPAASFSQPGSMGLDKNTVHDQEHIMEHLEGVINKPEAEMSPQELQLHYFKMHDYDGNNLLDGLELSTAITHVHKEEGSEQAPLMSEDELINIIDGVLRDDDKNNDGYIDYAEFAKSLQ", "conditions": "protein MCFD2, U3A cells"}, "[22]": {"biological_target": "proteins of U3A human fibrosarcoma cells (4462 proteins detected) (Homo sapiens, UniProt Q96DM3)", "conditions": "protein C18orf8; U3A cells"}, "[23]": {"biological_target": "proteins of U3A human fibrosarcoma cells (4462 proteins detected) (Homo sapiens, UniProt Q96EY8)", "conditions": "protein MMAB; U3A cells"}, "[24]": {"biological_target": "proteins of U3A human fibrosarcoma cells (4462 proteins detected) (Homo sapiens, UniProt Q9BSJ8)", "sequence (Q9BSJ8 whole entry)": "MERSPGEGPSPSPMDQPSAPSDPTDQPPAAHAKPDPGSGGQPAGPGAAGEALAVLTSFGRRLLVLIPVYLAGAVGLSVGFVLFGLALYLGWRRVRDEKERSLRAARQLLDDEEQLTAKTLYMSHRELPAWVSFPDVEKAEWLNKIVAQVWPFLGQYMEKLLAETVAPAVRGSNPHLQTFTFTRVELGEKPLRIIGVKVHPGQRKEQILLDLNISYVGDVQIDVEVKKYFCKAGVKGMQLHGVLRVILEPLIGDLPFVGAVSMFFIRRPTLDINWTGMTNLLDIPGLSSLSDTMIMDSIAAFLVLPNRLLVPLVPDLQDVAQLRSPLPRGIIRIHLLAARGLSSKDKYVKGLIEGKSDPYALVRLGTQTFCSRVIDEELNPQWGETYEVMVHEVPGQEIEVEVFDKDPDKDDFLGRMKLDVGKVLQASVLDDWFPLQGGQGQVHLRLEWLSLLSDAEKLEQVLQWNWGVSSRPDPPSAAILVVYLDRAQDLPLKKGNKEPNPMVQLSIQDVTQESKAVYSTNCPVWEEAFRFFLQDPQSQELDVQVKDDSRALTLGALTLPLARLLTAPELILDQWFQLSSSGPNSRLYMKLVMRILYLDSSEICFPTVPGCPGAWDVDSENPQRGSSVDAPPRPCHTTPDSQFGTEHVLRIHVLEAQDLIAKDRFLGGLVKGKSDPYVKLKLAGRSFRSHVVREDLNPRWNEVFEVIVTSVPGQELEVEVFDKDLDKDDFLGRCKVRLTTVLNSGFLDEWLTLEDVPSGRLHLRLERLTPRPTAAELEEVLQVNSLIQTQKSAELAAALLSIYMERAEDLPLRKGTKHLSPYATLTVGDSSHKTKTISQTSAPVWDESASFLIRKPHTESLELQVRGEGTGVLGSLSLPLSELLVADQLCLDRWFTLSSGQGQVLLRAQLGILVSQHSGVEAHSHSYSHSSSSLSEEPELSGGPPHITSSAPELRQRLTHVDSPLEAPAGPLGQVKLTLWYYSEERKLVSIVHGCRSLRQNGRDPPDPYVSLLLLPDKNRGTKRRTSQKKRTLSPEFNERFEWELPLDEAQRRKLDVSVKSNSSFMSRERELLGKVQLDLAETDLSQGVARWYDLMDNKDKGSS", "conditions": "protein ESYT1; U3A cells"}, "[25]": {"biological_target": "proteins of U3A human fibrosarcoma cells (4462 proteins detected) (Homo sapiens, UniProt Q9HCN4)", "conditions": "protein GPN1; soluble abundance after heat, U3A cells"}, "[26]": {"biological_target": "proteins of U3A human fibrosarcoma cells (4462 proteins detected) (Homo sapiens, UniProt Q9NRL3)", "conditions": "protein STRN4; U3A cells"}, "[27]": {"biological_target": "proteins of U3A human fibrosarcoma cells (4462 proteins detected) (Homo sapiens, UniProt Q9NX58)", "conditions": "protein LYAR; U3A cells"}, "[28]": {"biological_target": "proteins of U3A human fibrosarcoma cells (4462 proteins detected) (Homo sapiens, UniProt Q9P032)", "conditions": "protein NDUFAF4; U3A cells"}, "[29]": {"biological_target": "proteins of U3A human fibrosarcoma cells (4462 proteins detected) (Homo sapiens, UniProt Q9Y316)", "sequence (Q9Y316 whole entry)": "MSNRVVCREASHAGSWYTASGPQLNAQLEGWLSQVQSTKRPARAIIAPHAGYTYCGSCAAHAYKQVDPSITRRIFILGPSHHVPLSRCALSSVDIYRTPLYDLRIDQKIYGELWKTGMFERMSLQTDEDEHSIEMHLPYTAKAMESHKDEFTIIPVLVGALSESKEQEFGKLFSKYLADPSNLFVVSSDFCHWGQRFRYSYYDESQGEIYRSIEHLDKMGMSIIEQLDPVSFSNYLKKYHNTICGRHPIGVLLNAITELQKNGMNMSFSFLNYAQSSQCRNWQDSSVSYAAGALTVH", "conditions": "protein MEMO1, U3A cells"}, "[30]": {"biological_target": "proteins of U3A human fibrosarcoma cells (4462 proteins detected) (Homo sapiens, UniProt Q9Y608)", "conditions": "protein LRRFIP2, U3A cells"}}}
{"compound": "CCc1nc(N)nc(N)c1-c1ccc(Cl)cc1", "note": "[pyrimethamine]", "values": [{"measurement": "Log2 (PYR/DMSO)", "setting": "[1]", "value": -0.04}, {"measurement": "Log2 (PYR/DMSO)", "setting": "[2]", "value": 0.14}, {"measurement": "Log2 (PYR/DMSO), H2AFY", "setting": "[3]", "value": 0.33}, {"measurement": "Log2 (PYR/DMSO)", "setting": "[4]", "value": 0.16}, {"measurement": "Log2 (PYR/DMSO)", "setting": "[5]", "value": -0.04}, {"measurement": "Log2 (PYR/DMSO)", "setting": "[6]", "value": 0.17}, {"measurement": "Log2 (PYR/DMSO)", "setting": "[7]", "value": 0.15}, {"measurement": "Log2 (PYR/DMSO)", "setting": "[8]", "value": 0.13}, {"measurement": "Log2 (PYR/DMSO)", "setting": "[9]", "value": 0.21}, {"measurement": "Log2 (PYR/DMSO)", "setting": "[10]", "value": -0.04}, {"measurement": "Log2 (PYR/DMSO), ZNF143", "setting": "[11]", "value": -0.16}, {"measurement": "Log2 (PYR/DMSO)", "setting": "[12]", "value": 0.14}, {"measurement": "Log2 (PYR/DMSO)", "setting": "[13]", "value": 0.18}, {"measurement": "Log2 (PYR/DMSO)", "setting": "[14]", "value": -0.04}, {"measurement": "Log2 (PYR/DMSO)", "setting": "[15]", "value": 0.20}, {"measurement": "Log2 (PYR/DMSO)", "setting": "[16]", "value": -0.05}, {"measurement": "Log2 (PYR/DMSO)", "setting": "[17]", "value": 0.13}, {"measurement": "Log2 (PYR/DMSO)", "setting": "[18]", "value": 0.16}, {"measurement": "Log2 (PYR/DMSO), SMC5", "setting": "[19]", "value": 0.30}, {"measurement": "Log2 (PYR/DMSO)", "setting": "[20]", "value": 0.15}, {"measurement": "Log2 (PYR/DMSO)", "setting": "[21]", "value": -0.05}, {"measurement": "Log2 (PYR/DMSO)", "setting": "[22]", "value": 0.17}, {"measurement": "Log2 (PYR/DMSO)", "setting": "[23]", "value": 0.19}, {"measurement": "Log2 (PYR/DMSO)", "setting": "[24]", "value": 0.20}, {"measurement": "Log2 (PYR/DMSO)", "setting": "[25]", "value": 0.15}, {"measurement": "Log2 (PYR/DMSO)", "setting": "[26]", "value": 0.16}, {"measurement": "Log2 (PYR/DMSO)", "setting": "[27]", "value": 0.18}, {"measurement": "Log2 (PYR/DMSO)", "setting": "[28]", "value": 0.17}, {"measurement": "Log2 (PYR/DMSO)", "setting": "[29]", "value": -0.03}, {"measurement": "Log2 (PYR/DMSO)", "setting": "[30]", "value": -0.04}]}
